Data published in patent US20240101552A1, “CARBONYL HETEROCYCLIC COMPOUND AND APPLICATION THEREOF” (SHANGHAI PHARMACEUTICALS HOLDING CO., LTD., priority 2020, published 2024).

Target: LANCL2 (Homo sapiens (Human), UniProt Q9NS86)
Experiment: SPR (BIACORE S200) kinetic determination of LANCL2-small molecule interactions
Assay type: binding
Details: for Kd: immobilized LANCL2, 1:1 binding model, pH 6.5, 25° C.; for Rmax (RU): maximum binding force
Method: 1.1 Reagent Materials • Ligand: LANCL2 • Running buffer: 20 mM MES, 150 mM NaCl, 0.05% P20, pH 6.5, 1% DMSO
Injection conditions for small molecule compounds: a flow rate of 30 μL/min, a binding time of 60 s, a dissociation time of 300 s.
Running buffer: 20 mM MES, 150 mM NaCl, 0.05% P20, pH 6.5, 1% DMSO.
Sample chamber temperature: 25° C.; analysis temperature: 25° C.
Kinetic determination of LANCL2-small molecule interactions was performed. The kinetic parameters of small molecules BT-11 and L-1 to 60 (analytes) binding to LANCL2 (ligand) were determined using BIACORE S200. Data were generated in triplicate in a dose-dependent manner (5-8 titration points) and analyzed to determine binding models (Langmuir, conformational shifts, etc.), real-time association and dissociation constants, and equilibrium dissociation constants. SPR technology allows the validation of specific LANCL2-phytochemical interactions as well as an increased insight into the gold standard of binding mechanisms and rates. Experiments were performed on carboxymethyl polydextrose (CM5) sensor chips by amine-coupled covalent attachment of LANCL2. Data were analyzed with BIACORE S200T200 evaluation software (version 1), so as to determine affinity binding constants (KD) using a 1:1 binding model.
An optical technique for detecting molecular interactions, SPR, was used to measure the binding affinity between LANCL2 and a ligand thereof (compound to be tested). Purified recombinant LANCL2 protein was immobilized on a BIACORE sensor chip and small molecules were injected onto the protein surface using an equipment of microfluidic system. The change in total mass on the chip surface, corresponding to a small binding to the protein, was measured. […] The equilibrium dissociation constant (Kd) was often used to describe the affinity between a ligand and a protein, such as affinity degree of a ligand binding to a specific protein. Ligand-protein affinity was affected by non-covalent intermolecular interactions between two molecules, such as hydrogen bonding, electrostatic interactions, hydrophobic bonds and van der Waals forces. The steady-state affinity (Kd) for each interaction could be measured by plotting equilibrium binding levels against compound concentrations.

LANCL2, sequence (Q9NS86 whole entry, species assumed): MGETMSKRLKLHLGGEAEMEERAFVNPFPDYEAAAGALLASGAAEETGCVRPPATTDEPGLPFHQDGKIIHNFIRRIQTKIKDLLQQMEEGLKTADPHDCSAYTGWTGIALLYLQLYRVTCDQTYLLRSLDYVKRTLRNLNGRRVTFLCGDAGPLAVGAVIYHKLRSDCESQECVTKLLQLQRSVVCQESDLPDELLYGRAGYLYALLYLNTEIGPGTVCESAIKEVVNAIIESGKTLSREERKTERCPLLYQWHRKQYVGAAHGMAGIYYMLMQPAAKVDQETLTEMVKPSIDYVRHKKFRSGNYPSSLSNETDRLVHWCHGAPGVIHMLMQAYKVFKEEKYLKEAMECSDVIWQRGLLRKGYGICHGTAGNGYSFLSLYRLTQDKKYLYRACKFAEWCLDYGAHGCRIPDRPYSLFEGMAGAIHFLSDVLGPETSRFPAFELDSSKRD

| SMILES | Kd [µM] | Rmax (RU) | binding activity compared with positive reference compound BT-11 |
| --- | --- | --- | --- |
| O=C(c1ccnc(Nc2ccccc2)n1)N1CCC2(CC1)CCN(C(=O)c1ccnc(Nc3ccccc3)n1)CC2 [Embodiment L-78, (3,9-diazaspiro[5.5]undecane-3,9-diyl)bis((2-(phenylamino)pyrimidin-4-yl)methanone)] | 81.5 | 14.4 |  |
| O=C(c1cccc(-c2nc3ccccc3[nH]2)n1)N1CC2CN(C(=O)c3ccnc(Nc4ccc(F)cc4)n3)CC2C1 [Embodiment L-82] | 42.3 | 9.4 |  |
| O=C(c1ccnc(Nc2ccccc2)n1)N1CC2CN(C(=O)c3ccnc(Nc4ccccc4)n3)CC2C1 [Embodiment L-83] | 53.7 | 9.6 |  |
| Cc1ccc(C(=O)N2CC3C(C2)C3NC(=O)c2cccc(-c3nc4ccccc4[nH]3)n2)cc1NC1=CC(=O)c2ccccc2C1=O [Embodiment L-91] | 1.71 | 5.2 |  |
| O=C(c1cccc(Nc2ccccc2)n1)N1CC2CN(C(=O)c3cccc(Nc4ccccc4)n3)CC2C1 [Embodiment L-100] | 38.5 | 7.8 |  |
| O=C(N[C@H]1[C@@H]2CN(C(=O)c3sccc3-n3cccc3)C[C@@H]21)c1cccc(-c2cn3ccccc3n2)c1 [Embodiment L-104, N-((1R,5S,6s)-3-(3-(1H-pyrrol-1-yl)thiophene-2-carbonyl)-3-azabicyclo[3.1.0]hexan-6-yl)-3-(imidazo[1,2-a]pyridin-2-yl)benzamide] | 12.5 | 9.7 |  |
| CCCCOc1ccc(C(=O)NC2CCN(C(=O)c3cccc(-c4cn5ccccc5n4)c3)CC2)cc1 [Embodiment L-107, 4-Butoxy-N-(1-(3-(imidazo[1,2-a]pyridin-2-yl)benzoyl)piperidin-4-yl)benzamide] | 6.19 | 4.5 |  |
| O=C(c1cnc2ccccc2c1)N1CCN(C(=O)c2cccc(-c3nc4ccccc4[nH]3)n2)CC1 [Embodiment L-108, (4-(6-(1H-benzo[d]imidazol-2-yl)picolinoyl)piperazin-1-yl)(quinolin-3-yl)methanone] | 48.4 | 13.7 |  |
| O=C(c1cccc(-c2nc3ccccc3[nH]2)n1)N1CCN(C(=O)c2n[nH]c3ccccc23)CC1 [Embodiment L-110, (4-(6-(1H-benzo[d]imidazol-2-yl)picolinoyl)piperazin-1-yl)(1H-indazol-3-yl)methanone] | 26.2 | 15 |  |
| NC(=O)c1sccc1NC(=O)c1ccc(C(=O)N2CCN(C(=O)c3cccc(-c4nc5ccccc5[nH]4)n3)CC2)cc1 [Embodiment L-115, 3-(4-(4-(6-(1H-benzo[d]imidazol-2-yl)picolinoyl)piperazine-1-carbonyl)benzamido)thiophene-2-carboxamide] | 17.7 | 20.8 |  |
| Cc1ccc(C(=O)N2CCN(C(=O)c3cccc(-c4nc5ccccc5[nH]4)n3)CC2)cc1NC1=CC(=O)c2ccccc2C1=O [Embodiment L-116, 2-((5-(4-(6-(1H-benzo[d]imidazol-2-yl)picolinoyl)piperazine-1-carbonyl)-2-methylphenyl)amino)naphthalene-1,4-dione] | 14.8 | 32.5 |  |
| O=C(c1cccc(-c2nc3ccccc3[nH]2)n1)N1CC2CN(C(=O)c3n[nH]c4ccccc34)CC2C1 [Embodiment L-120, (5-(6-(1Hbenzo[d]imidazol-2-yl)picolinoyl)hexahydropyrrolo[3,4-c]pyrrol-2(1H)-yl)(1H-indazol-3-yl)methanone] | 22.1 | 8.9 |  |

Continued, in another order:

| Kd [µM] | Rmax (RU) | SMILES | binding activity compared with positive reference compound BT-11 |
| --- | --- | --- | --- |
| 6.93 | 5.3 | O=C(c1cccc(-c2cn3ccccc3n2)c1)N1CCC2(CC1)CCN(C(=O)c1cccc(Nc3ccccc3)n1)CC2 [Embodiment L-72, (9-(3-(imidazo[1,2-a]pyridin-2-yl)benzoyl)-3,9-diazaspiro[5.5]undecan-3-yl)(6-(phenylamino)pyridin-2-yl)methanone] |  |
| 8.73 | 4.5 | O=C(c1cccc(-c2cn3ccccc3n2)c1)N1CCC2(CC1)CCN(C(=O)c1cccc(-c3cn4ccccc4n3)c1)CC2 [Embodiment L-73, (3,9-diazaspiro[5.5]undecane-3,9-diyl)bis((3-(imidazo[1,2-a]pyridin-2-yl)phenyl)methanone)] |  |
| 25.8 | 0.102 | O=C(c1cccc(-c2cn3ccccc3n2)c1)N1CC2CN(C(=O)c3cccc(-c4cn5ccccc5n4)c3)CC2C1 [Embodiment L-74, (tetrahydropyrrolo[3,4-c]pyrrole-2,5(1H,3H)-diyl)bis((3-(imidazo[1,2-a]pyridin-2-yl)phenyl)methanone)] |  |
| 1.9 | 7.3 | O=C(NC1C2CN(C(=O)c3cccc(-c4nc5ccccc5s4)c3)CC21)c1cccc(-c2nc3ccccc3[nH]2)n1 [Embodiment L-77, 6-(1H-benzo[d]imidazol-2-yl)-N-(3-(3-(benzo[d]thiazol-2-yl)benzoyl)-3-azabicyclo[3.1.0]hexane-6-yl)picolinamide] | better binding activities than the positive reference compound BT-11 |
| 24.8 | 13 | O=C(NC1CCN(C(=O)c2ccnc(Nc3ccccc3)n2)CC1)c1ccnc(Nc2ccccc2)n1 [Embodiment L-79] |  |
| 28.4 | 8.5 | O=C(c1cccc(Nc2ccccc2)n1)N1CCC2(CC1)CCN(C(=O)c1ccnc(Nc3ccccc3)n1)CC2 [Embodiment L-80, (9-(6-(phenylamino)picolinoyl)-3,9-diazaspiro[5.5]undecan-3-yl)(2-(phenylamino)pyrimidin-4-yl)methanone] |  |
| 23 | 10.5 | O=C(NC1CCN(C(=O)c2ccnc(Nc3ccccc3)n2)CC1)c1cccc(Nc2ccccc2)n1 [Embodiment L-81, 6-(phenylamino)-N-(1-(2-(phenylamino)pyrimidine-4-carbonyl)piperidin-4-yl)picolinamide] |  |
| 16.4 | 9.7 | O=C(NC1CCN(C(=O)c2cccc(-c3cn4ccccc4n3)c2)CC1)c1cccc(-c2cn3ccccc3n2)c1 [Embodiment L-88, 3-(imidazo[1,2-a]pyridin-2-yl)-N-(1-(3-(imidazo[1,2-a]pyridin-2-yl)benzoyl)piperidin-4-yl)benzamide] |  |
| 58.8 | 11 | Cc1cn(-c2cccc(C(=O)N3CCC4(CCN(C(=O)c5cccc(-c6cn7ccccc7n6)c5)CC4)CC3)c2)cn1 [Embodiment L-92, (9-(3-(imidazo[1,2-a]pyridin-2-yl)benzoyl)-3,9-diazaspiro[5.5]undecan-3-yl)(3-(4-methyl-1H-imidazol-1-yl)phenyl)methanone] |  |
| 5.84 | 8 | Cc1cn(-c2cccc(C(=O)N3CC4C(C3)C4NC(=O)c3cccc(-c4nc5ccccc5[nH]4)n3)c2)cn1 [Embodiment L-93, 6-(1H-benzo[d]imidazol-2-yl)-N-(3-(3-(4-methyl-1H-imidazol-1-yl)benzoyl)-3-azabicyclo[3.1.0]hexane-6-yl)picolinamide] |  |
| 2.09 | 5.2 | Cc1ccc(C(=O)N2CCC3(CCN(C(=O)c4cccc(-c5cn6ccccc6n5)c4)CC3)CC2)cc1NC1=CC(=O)c2ccccc2C1=O [Embodiment L-95, 2-((5-(9-(3-(imidazo[1,2-a]pyridin-2-yl)benzoyl)-3,9-diazaspiro[5.5]undecane-3-carbonyl)-2-methylphenyl)amino)naphthalene-1,4-dione] | better binding activities than the positive reference compound BT-11 |
| 1.91 | 2.3 | NC(=O)c1sccc1NC(=O)c1ccc(C(=O)N2CCC3(CC2)CCN(C(=O)c2cccc(-c4cn5ccccc5n4)c2)CC3)cc1 [Embodiment L-96, 3-(4-(9-(3-(imidazo[1,2-a]pyridin-2-yl)benzoyl)-3,9-diazaspiro[5.5]undecane-3-carbonyl)benzamido)thiophene-2-carboxamide] | better binding activities than the positive reference compound BT-11 |
| 23.3 | 5.5 | O=C(N[C@H]1[C@@H]2CN(C(=O)c3cccc(Nc4ccccc4)n3)C[C@@H]21)c1cccc(Nc2ccccc2)n1 [Embodiment L-101] |  |
| 27 | 3.2 | Cc1cn(-c2cccc(C(=O)N3CCN(C(=O)c4cccc(-c5nc6ccccc6[nH]5)n4)CC3)c2)cn1 [Embodiment L-117, (4-(6-(1H-benzo[d]imidazol-2-yl)picolinoyl)piperazin-1-yl)(3-(4-methyl-1H-imidazol-1-yl)phenyl)methanone] |  |
| 6.78 | 10.8 | O=C(Nc1cccc(-c2cn3ccccc3n2)c1)Nc1cccc(-c2cn3ccccc3n2)c1 [Embodiment L-119, 1,3-Bis(3-(imidazo[1,2-a]pyridin-2-yl)phenyl)urea] |  |
